Assays:
[1] = system: MV4:11 human cancer cell lines; assay: Cellular viability / anti-proliferative activity, CellTiter-Glo, 5 day protocol; assay type: cell-based; conditions: Homo sapiens, MV4-11, 120 h, MV4:11 cells, 5 day incubation, read-out: GI50 for representative compounds on cellular proliferation of MV4:11 human cancer cell lines
Experimental: Anti-proliferative activity using MLL-harboring cell lines. MV-4-11 and K562 cells are grown in IMDM media supplemented with 10% FBS and 1% penicillin/streptomycin, Molm-13 cells are cultured in RPMI-1640 media supplemented with 10% FBS and 1% penicillin/streptomycin. Viability assays are performed by dispensing 200 cells at 7200 cells/mL into each well of an opaque 384-well plate and adding compounds at the indicated concentrations in a final volume of 32 μL and a final concentration of DMSO of 0.3% for all samples. A certain range of compound concentrations is made through a series of 2-fold dilutions starting 30 μM at the highest, total 22 dilutions. After a set incubation period, 5 day protocol, the viability of cells in each well is assessed using the CellTiter-Glo assay (Promega), read on a 96 Microplane Luminometer (Cytation 3, BioTek). Serial dilutions of each cell type are performed in all assays to generate standard curves and the final densities of cells are determined within the dynamic range of the instrument. GI50 values are calculated based on XLfit software (IDBS, Guildford, UK) with Sigmoidal Dose-Response Model. Each compound is tested in minimum of two replicates. Data are expressed as mean.

WDR5 = molecular target: T1, WDR5 (Homo sapiens, UniProt P61964); assay: Time Resolved-Fluorescence Energy Transfer (TR-FRET) competition assay, displacement of 10mer-Thr-FAM probe from His-tagged WDR5; assay type: binding; conditions: WDR5-His tag 2 nM, 10mer-Thr-FAM 150 nM, 60 minutes at room temperature; read-out: Ki for Exemplified Compounds for Inhibition of WDR5 by TR-FRET assay
T1 construct: WDR5-His Tag (A23, residues 24-334) is expressed and purified in our lab; made in house
Outline: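 Competitive TR-FRET using 2 nM His-tagged WDR5 (residues 24-334), 1 nM Tb-anti-His antibody and 150 nM 10mer-Thr-FAM probe; compounds in a 10-point, 5-fold series from 5 μM, ≤1% DMSO. Incubated 60 min at room temperature in PBS with 300 mM NaCl, 0.5 mM TCEP, 0.1% CHAPS, pH 7.2; 520/495 nm emission gave IC50, converted to Ki by the Wang equation.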

| SMILES | GI50 [1] [nM] | Ki (WDR5) [nM] |
| --- | --- | --- |
| CCc1cc2c(N3CCc4c(cc(Cn5ccnc5)cc4-c4cn(C)nc4C(F)(F)F)C3=O)ccnc2c(-n2cccc2)n1 [Example 35, 7-((1H-Imidazol-1-yl)methyl)-2-(6-ethyl-8-(1H-pyrrol-1-yl)-1,7-naphthyridin-4-yl)-5-(1-methyl-3-(trifluoromethyl)-1H-pyrazol-4-yl)-3,4-dihydroisoquinolin-1(2H)-one] | 47 | < 0.02 |
| CCOc1nc(CC)cc2c(N3CCc4c(cc(Cn5ccnc5)cc4-c4cn(C)nc4C(F)(F)F)C3=O)ccnc12 [Example 36, 7-((1H-Imidazol-1-yl)methyl)-2-(8-ethoxy-6-ethyl-1,7-naphthyridin-4-yl)-5-(1-methyl-3-(trifluoromethyl)-1H-pyrazol-4-yl)-3,4-dihydroisoquinolin-1(2H)-one] | < 20 | < 0.02 |
| CCc1cc2c(N3CCc4c(cc(Cn5ccnc5)cc4-c4cn(C)nc4C(F)(F)F)C3=O)ccnc2c(CC)n1 [Example 37, 7-((1H-Imidazol-1-yl)methyl)-2-(6,8-diethyl-1,7-naphthyridin-4-yl)-5-(1-methyl-3-(trifluoromethyl)-1H-pyrazol-4-yl)-3,4-dihydroisoquinolin-1(2H)-one] | 96 | < 0.02 |
| CCc1cc2c(N3CCc4c(cc(Cn5ccnc5)cc4-c4cn(C)nc4C(F)(F)F)C3=O)ccnc2c(OCC(F)F)n1 [Example 39, 7-((1H-Imidazol-1-yl)methyl)-2-(8-(2,2-difluoroethoxy)-6-ethyl-1,7-naphthyridin-4-yl)-5-(1-methyl-3-(trifluoromethyl)-1H-pyrazol-4-yl)-3,4-dihydroisoquinolin-1(2H)-one] | < 20 | < 0.02 |
| CCc1cc2c(N3CCc4c(cc(Cn5ccnc5)cc4-c4cn(C)nc4C(F)(F)F)C3=O)ncnc2cc1OC [Example 43, 7-((1H-Imidazol-1-yl)methyl)-2-(6-ethyl-7-methoxyquinazolin-4-yl)-5-(1-methyl-3-(trifluoromethyl)-1H-pyrazol-4-yl)-3,4-dihydroisoquinolin-1(2H)-one] | < 20 | < 0.02 |
| CCc1cc2c(N3CCc4c(cc(Cn5ccnc5)cc4-c4cn(C)nc4C(F)(F)F)C3=O)ccnc2c(N2CCOCC2)n1 [Example 44, 7-((1H-Imidazol-1-yl)methyl)-2-(6-ethyl-8-morpholino-1,7-naphthyridin-4-yl)-5-(1-methyl-3-(trifluoromethyl)-1H-pyrazol-4-yl)-3,4-dihydroisoquinolin-1(2H)-one] | < 20 | < 0.02 |
| CCc1cc2c(N3CCc4c(cc(Cn5ccnc5)cc4-c4cn(C)nc4C(F)(F)F)C3=O)ccnc2c(-c2ccncc2)n1 [Example 45, 7-((1H-Imidazol-1-yl)methyl)-2-(6-ethyl-8-(pyridin-4-yl)-1,7-naphthyridin-4-yl)-5-(1-methyl-3-(trifluoromethyl)-1H-pyrazol-4-yl)-3,4-dihydroisoquinolin-1(2H)-one] | 21 | < 0.02 |
| CCc1cc2c(N3CCc4c(cc(Cn5ccnc5)cc4-c4cn(C)nc4C(F)(F)F)C3=O)ccnc2c(N2CCN(C)CC2)n1 [Example 46, 7-((1H-Imidazol-1-yl)methyl)-2-(6-ethyl-8-(4-methylpiperazin-1-yl)-1,7-naphthyridin-4-yl)-5-(1-methyl-3-(trifluoromethyl)-1H-pyrazol-4-yl)-3,4-dihydroisoquinolin-1(2H)-one] | < 20 | < 0.02 |
| CCc1cc2c(N3CCc4c(cc(Cn5ccnc5)cc4-n4nc(C)cc4C(F)(F)F)C3=O)ccnc2c(OC)n1 [Example 47, 7-((1H-Imidazol-1-yl)methyl)-2-(6-ethyl-8-methoxy-1,7-naphthyridin-4-yl)-5-(3-methyl-5-(trifluoromethyl)-1H-pyrazol-1-yl)-3,4-dihydroisoquinolin-1(2H)-one] | 296 | 0.024 |
| CCc1cc2c(N3CCc4c(cc(Cn5ccnc5)cc4-c4cn(C)nc4C(F)(F)F)C3=O)cc(C)nc2c(OC)n1 [Example 48, 7-((1H-Imidazol-1-yl)methyl)-2-(6-ethyl-8-methoxy-2-methyl-1,7-naphthyridin-4-yl)-5-(1-methyl-3-(trifluoromethyl)-1H-pyrazol-4-yl)-3,4-dihydroisoquinolin-1(2H)-one] | < 20 | < 0.02 |
| COc1cc2nncc(N3CCc4c(cc(Cn5ccnc5)cc4-c4cn(C)nc4C(F)(F)F)C3=O)c2cc1OC [Example 49, 7-((1H-Imidazol-1-yl)methyl)-2-(6,7-dimethoxycinnolin-4-yl)-5-(1-methyl-3-(trifluoromethyl)-1H-pyrazol-4-yl)-3,4-dihydroisoquinolin-1(2H)-one] | < 20 | < 0.02 |
| COc1cc(OC)c2ncnc(N3CCc4c(cc(Cn5ccnc5)cc4-c4cn(C)nc4C(F)(F)F)C3=O)c2c1 [Example 50, 7-((1H-Imidazol-1-yl)methyl)-2-(6,8-dimethoxyquinazolin-4-yl)-5-(1-methyl-3-(trifluoromethyl)-1H-pyrazol-4-yl)-3,4-dihydroisoquinolin-1(2H)-one] | < 20 | 0.022 |
| CCc1cc(OC)c2nc(C)nc(N3CCc4c(cc(Cn5ccnc5)cc4-c4cn(C)nc4C(F)(F)F)C3=O)c2c1 [Example 51, 7-((1H-Imidazol-1-yl)methyl)-2-(6-ethyl-8-methoxy-2-methylquinazolin-4-yl)-5-(1-methyl-3-(trifluoromethyl)-1H-pyrazol-4-yl)-3,4-dihydroisoquinolin-1(2H)-one] | < 20 | 0.022 |
| CCc1cc2c(N3CCc4c(cc(Cn5ccnc5)cc4-c4cn(C)nc4C(F)(F)F)C3=O)ccnc2c(COC)n1 [Example 52, 7-((1H-Imidazol-1-yl)methyl)-2-(6-ethyl-8-(methoxymethyl)-1,7-naphthyridin-4-yl)-5-(1-methyl-3-(trifluoromethyl)-1H-pyrazol-4-yl)-3,4-dihydroisoquinolin-1(2H)-one] | 80 | 0.03 |
| COc1cc2c(N3CCc4c(cc(Cn5ccnc5)cc4-c4cn(C)nc4C(F)(F)F)C3=O)nc(C)nc2cc1F [Example 53, 7-((1H-Imidazol-1-yl)methyl)-2-(7-fluoro-6-methoxy-2-methylquinazolin-4-yl)-5-(1-methyl-3-(trifluoromethyl)-1H-pyrazol-4-yl)-3,4-dihydroisoquinolin-1(2H)-one] | < 20 | < 0.02 |
| COc1cc2c(N3CCc4c(cc(Cn5ccnc5)cc4-c4cn(C)nc4C(F)(F)F)C3=O)nc(C)nc2cc1N1CCC1 [Example 54, 7-((1H-Imidazol-1-yl)methyl)-2-(7-(azetidin-1-yl)-6-methoxy-2-methylquinazolin-4-yl)-5-(1-methyl-3-(trifluoromethyl)-1H-pyrazol-4-yl)-3,4-dihydroisoquinolin-1(2H)-one] | 81 | < 0.02 |
| CNc1cc2nc(C)nc(N3CCc4c(cc(Cn5ccnc5)cc4-c4cn(C)nc4C(F)(F)F)C3=O)c2cc1OC [Example 55, 7-((1H-Imidazol-1-yl)methyl)-2-(6-methoxy-2-methyl-7-(methylamino)quinazolin-4-yl)-5-(1-methyl-3-(trifluoromethyl)-1H-pyrazol-4-yl)-3,4-dihydroisoquinolin-1(2H)-one] | 47 | < 0.02 |
| COc1cc2nc(N3CCOCC3)nc(N3CCc4c(cc(Cn5ccnc5)cc4-c4cn(C)nc4C(F)(F)F)C3=O)c2cc1OC [Example 56, 7-((1H-Imidazol-1-yl)methyl)-2-(6,7-dimethoxy-2-morpholinoquinazolin-4-yl)-5-(1-methyl-3-(trifluoromethyl)-1H-pyrazol-4-yl)-3,4-dihydroisoquinolin-1(2H)-one] | < 20 | < 0.02 |
| CNc1nc(N2CCc3c(cc(Cn4ccnc4)cc3-c3cn(C)nc3C(F)(F)F)C2=O)c2cc(OC)c(OC)cc2n1 [Example 57, 7-((1H-Imidazol-1-yl)methyl)-2-(6,7-dimethoxy-2-(methylamino)quinazolin-4-yl)-5-(1-methyl-3-(trifluoromethyl)-1H-pyrazol-4-yl)-3,4-dihydroisoquinolin-1(2H)-one] | 24 | 0.023 |
| CCn1nc(C)cc1-c1cc(Cn2ccnc2)cc2c1CCN(c1nc(C)nc3cc(OC)c(OC)cc13)C2=O [Example 58, 7-((1H-Imidazol-1-yl)methyl)-2-(6,7-dimethoxy-2-methylquinazolin-4-yl)-5-(1-ethyl-3-methyl-1H-pyrazol-5-yl)-3,4-dihydroisoquinolin-1(2H)-one] | 195 | 0.03 |
| COc1cc2nc(C)nc(N3CCc4c(cc(Cn5ccnc5)cc4-c4cc(C)nn4C)C3=O)c2cc1OC [Example 59, 7-((1H-Imidazol-1-yl)methyl)-2-(6,7-dimethoxy-2-methylquinazolin-4-yl)-5-(1,3-dimethyl-1H-pyrazol-5-yl)-3,4-dihydroisoquinolin-1(2H)-one] | 90 | < 0.02 |

Reference: patent US20240262822A1, “WDR5 INHIBITORS AND MODULATORS” (Vanderbilt University, priority 2021, published 2024)
